“And” between values parts separate entries of the source, which are not always exact repeats. Identical values can stand only once.
Columns and labels:
[1] = target: Sodium-dependent noradrenaline transporter (Homo sapiens, UniProt P23975)
Thromboxane A2 receptor = target: T1, Thromboxane A2 receptor (Homo sapiens, UniProt P21731)
T1 sequence (P21731 whole entry): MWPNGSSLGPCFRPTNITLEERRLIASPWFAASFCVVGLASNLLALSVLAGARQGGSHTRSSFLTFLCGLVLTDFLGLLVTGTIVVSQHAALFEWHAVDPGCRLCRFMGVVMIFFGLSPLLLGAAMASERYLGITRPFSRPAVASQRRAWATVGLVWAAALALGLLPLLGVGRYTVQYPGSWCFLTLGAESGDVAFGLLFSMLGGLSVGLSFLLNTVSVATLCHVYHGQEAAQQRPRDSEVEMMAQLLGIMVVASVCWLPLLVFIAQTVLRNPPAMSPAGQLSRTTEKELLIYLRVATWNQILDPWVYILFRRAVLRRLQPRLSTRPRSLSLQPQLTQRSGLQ

[2] = target: T2, Type-1 angiotensin II receptor (Homo sapiens, UniProt P30556)
T2 sequence (P30556 whole entry): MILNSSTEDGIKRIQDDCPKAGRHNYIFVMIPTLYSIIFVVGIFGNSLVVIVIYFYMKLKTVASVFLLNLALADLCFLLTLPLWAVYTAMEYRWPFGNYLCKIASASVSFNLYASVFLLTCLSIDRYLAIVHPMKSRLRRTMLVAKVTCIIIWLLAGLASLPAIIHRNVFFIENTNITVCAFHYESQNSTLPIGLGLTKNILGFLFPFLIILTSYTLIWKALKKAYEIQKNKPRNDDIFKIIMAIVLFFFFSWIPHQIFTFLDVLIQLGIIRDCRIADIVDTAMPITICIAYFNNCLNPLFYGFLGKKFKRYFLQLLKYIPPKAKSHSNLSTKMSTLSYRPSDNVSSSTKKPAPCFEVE

Vasopressin V2 receptor = Vasopressin V2 receptor (Homo sapiens, UniProt P30518)
Sequence of Vasopressin V2 receptor (P30518 whole entry): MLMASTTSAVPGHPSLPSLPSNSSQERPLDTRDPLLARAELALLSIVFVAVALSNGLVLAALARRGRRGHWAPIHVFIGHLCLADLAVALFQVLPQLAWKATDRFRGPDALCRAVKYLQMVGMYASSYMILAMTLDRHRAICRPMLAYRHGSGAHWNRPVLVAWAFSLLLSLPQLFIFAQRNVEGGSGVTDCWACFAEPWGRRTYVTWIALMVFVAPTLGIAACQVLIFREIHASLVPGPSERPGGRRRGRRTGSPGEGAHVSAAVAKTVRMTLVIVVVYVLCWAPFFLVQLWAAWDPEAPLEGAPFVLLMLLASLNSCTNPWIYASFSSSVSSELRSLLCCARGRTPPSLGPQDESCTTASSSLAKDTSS

[3] = target: T3, Muscarinic acetylcholine receptor M2 (Homo sapiens, UniProt P08172); assay type: functional, cell-based
T3 sequence (P08172 whole entry): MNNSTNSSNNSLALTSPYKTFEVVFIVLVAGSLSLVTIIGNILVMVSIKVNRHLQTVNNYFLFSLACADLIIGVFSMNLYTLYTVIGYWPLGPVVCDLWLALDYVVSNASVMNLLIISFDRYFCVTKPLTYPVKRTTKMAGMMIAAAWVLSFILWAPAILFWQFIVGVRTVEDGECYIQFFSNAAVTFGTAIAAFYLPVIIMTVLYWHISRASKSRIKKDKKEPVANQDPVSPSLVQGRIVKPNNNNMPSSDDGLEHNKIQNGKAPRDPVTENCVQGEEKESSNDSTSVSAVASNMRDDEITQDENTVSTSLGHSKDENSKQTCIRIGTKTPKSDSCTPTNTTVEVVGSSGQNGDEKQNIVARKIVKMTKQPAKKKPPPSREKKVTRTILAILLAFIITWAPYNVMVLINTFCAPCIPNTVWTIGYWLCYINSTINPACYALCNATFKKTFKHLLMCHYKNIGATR

[4] = target: T4, Alpha-2A adrenergic receptor (Homo sapiens, UniProt P08913); assay type: functional, cell-based
T4 sequence (P08913 whole entry): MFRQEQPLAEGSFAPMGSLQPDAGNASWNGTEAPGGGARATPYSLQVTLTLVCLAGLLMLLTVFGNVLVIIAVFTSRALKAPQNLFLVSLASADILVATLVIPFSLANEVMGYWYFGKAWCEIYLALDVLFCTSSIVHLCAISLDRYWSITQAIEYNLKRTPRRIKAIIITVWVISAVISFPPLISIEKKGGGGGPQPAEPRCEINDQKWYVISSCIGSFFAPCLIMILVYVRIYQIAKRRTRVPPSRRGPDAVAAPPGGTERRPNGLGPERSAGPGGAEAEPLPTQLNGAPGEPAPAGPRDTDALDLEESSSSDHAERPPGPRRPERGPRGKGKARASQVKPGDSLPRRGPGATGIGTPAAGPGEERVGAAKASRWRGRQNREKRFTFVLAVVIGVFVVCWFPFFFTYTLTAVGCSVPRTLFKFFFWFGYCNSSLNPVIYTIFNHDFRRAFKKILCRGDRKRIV

[5] = target: 5-hydroxytryptamine receptor 2B (Homo sapiens, UniProt P41595); assay type: functional, cell-based
Sequence of 5-hydroxytryptamine receptor 2B (P41595 whole entry): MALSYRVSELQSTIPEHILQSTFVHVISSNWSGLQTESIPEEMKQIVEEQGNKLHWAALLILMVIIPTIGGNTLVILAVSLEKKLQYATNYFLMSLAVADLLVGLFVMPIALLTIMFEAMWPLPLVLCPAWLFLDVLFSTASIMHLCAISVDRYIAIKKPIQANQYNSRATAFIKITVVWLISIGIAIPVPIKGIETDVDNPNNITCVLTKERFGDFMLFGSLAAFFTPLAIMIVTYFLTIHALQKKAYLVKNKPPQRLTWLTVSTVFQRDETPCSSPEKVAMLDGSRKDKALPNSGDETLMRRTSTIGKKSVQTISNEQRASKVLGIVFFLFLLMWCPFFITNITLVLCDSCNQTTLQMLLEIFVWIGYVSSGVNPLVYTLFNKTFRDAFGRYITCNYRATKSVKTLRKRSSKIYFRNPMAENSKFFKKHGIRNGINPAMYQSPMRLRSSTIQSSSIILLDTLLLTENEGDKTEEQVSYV

[6] = target: Voltage-dependent L-type calcium channel subunit alpha-1C (Rattus norvegicus, UniProt P22002); assay type: functional
Sequence of Voltage-dependent L-type calcium channel subunit alpha-1C (P22002 whole entry): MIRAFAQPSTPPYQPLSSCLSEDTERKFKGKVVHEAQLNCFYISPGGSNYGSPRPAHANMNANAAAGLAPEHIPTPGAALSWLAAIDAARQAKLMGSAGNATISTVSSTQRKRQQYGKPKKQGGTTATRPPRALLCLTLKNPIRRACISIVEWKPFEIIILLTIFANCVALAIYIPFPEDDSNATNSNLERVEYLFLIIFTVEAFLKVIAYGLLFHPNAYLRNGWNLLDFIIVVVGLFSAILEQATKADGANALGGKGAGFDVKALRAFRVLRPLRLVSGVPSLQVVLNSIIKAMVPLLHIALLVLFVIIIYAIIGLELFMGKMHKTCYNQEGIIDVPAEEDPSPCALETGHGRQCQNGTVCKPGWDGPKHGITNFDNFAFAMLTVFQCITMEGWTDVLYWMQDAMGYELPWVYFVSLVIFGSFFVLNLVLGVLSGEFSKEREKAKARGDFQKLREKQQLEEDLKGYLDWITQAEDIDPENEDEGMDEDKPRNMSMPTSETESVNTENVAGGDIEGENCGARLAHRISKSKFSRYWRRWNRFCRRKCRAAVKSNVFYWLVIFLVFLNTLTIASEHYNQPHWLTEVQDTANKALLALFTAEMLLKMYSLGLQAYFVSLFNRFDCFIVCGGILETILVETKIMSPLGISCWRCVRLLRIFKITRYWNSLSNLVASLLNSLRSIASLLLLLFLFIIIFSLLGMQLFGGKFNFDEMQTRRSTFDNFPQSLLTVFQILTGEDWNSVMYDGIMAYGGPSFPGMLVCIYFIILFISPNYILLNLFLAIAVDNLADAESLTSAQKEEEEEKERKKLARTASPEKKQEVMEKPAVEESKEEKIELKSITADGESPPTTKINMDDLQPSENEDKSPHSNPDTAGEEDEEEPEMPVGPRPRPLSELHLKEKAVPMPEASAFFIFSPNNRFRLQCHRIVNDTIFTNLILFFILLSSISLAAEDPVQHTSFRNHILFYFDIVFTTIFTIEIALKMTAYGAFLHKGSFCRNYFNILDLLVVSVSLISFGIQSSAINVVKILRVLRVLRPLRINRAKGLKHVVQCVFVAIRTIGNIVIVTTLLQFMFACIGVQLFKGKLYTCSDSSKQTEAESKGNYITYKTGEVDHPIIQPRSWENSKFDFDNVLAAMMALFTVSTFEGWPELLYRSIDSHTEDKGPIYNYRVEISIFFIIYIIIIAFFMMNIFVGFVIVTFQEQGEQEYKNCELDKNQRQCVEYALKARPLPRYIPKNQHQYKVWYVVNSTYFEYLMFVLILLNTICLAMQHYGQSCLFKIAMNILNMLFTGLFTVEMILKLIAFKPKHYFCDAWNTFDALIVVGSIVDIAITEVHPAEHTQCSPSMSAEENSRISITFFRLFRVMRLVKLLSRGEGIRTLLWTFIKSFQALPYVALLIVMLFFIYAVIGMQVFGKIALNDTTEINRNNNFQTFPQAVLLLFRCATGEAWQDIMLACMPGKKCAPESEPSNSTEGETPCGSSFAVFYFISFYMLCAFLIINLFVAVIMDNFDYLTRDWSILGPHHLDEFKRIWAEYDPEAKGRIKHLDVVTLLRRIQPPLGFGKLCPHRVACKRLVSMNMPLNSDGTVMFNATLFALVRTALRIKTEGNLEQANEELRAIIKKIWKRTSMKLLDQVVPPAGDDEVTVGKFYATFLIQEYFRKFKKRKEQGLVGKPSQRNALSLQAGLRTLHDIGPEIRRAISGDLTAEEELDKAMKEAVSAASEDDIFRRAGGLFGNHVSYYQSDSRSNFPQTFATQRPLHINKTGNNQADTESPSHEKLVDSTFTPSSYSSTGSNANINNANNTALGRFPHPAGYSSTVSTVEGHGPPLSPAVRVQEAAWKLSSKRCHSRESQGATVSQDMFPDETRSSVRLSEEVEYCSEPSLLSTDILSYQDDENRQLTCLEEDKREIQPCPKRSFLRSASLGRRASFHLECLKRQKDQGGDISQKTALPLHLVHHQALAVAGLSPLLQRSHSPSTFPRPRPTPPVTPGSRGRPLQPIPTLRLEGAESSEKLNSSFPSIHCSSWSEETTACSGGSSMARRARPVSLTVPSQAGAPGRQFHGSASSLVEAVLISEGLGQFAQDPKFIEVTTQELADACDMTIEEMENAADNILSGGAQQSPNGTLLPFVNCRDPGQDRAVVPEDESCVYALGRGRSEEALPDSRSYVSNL

Adenosine receptor A1 = target: T5, Adenosine receptor A1 (Homo sapiens, UniProt P30542)
T5 sequence (P30542 whole entry): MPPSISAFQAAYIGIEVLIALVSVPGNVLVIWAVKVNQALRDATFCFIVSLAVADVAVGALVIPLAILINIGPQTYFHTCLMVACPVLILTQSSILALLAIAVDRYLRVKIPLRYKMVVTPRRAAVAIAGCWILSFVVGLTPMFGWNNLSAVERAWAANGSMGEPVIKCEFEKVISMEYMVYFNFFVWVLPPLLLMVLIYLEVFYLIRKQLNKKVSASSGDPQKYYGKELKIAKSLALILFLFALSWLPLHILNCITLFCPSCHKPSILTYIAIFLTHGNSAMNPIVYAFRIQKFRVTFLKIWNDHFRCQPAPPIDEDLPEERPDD

[7] = target: Glutamate receptor ionotropic, NMDA 1 (Rattus norvegicus, UniProt P35439)
D(3) dopamine receptor = D(3) dopamine receptor (Homo sapiens, UniProt P35462)
Sequence of D(3) dopamine receptor (P35462 whole entry): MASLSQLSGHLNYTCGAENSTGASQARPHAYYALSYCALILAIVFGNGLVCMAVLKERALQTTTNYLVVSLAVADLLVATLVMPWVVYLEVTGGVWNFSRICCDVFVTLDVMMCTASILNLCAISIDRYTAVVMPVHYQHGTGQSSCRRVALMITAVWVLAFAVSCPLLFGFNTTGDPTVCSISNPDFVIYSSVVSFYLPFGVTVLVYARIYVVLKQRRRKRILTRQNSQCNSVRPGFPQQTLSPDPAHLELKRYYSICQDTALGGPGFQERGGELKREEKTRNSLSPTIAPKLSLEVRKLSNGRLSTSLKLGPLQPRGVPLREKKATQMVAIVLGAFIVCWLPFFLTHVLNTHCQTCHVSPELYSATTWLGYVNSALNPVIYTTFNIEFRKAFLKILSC

[8] = target: Beta-2 adrenergic receptor (Homo sapiens, UniProt P07550); assay type: functional, cell-based
Sequence of Beta-2 adrenergic receptor (P07550 whole entry): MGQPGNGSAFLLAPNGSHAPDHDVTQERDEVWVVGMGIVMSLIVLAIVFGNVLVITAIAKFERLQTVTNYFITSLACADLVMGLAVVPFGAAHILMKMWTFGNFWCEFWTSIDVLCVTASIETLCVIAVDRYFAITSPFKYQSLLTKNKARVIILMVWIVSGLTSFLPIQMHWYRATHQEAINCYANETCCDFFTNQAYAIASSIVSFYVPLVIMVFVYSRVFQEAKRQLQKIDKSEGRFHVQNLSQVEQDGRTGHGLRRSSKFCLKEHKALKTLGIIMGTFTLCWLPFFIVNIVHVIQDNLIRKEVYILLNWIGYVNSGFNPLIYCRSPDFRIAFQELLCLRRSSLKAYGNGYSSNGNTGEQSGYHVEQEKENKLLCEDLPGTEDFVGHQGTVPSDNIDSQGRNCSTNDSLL

[9] = target: Beta-1 adrenergic receptor (Homo sapiens, UniProt P08588); assay type: functional
Sequence of Beta-1 adrenergic receptor (P08588 whole entry): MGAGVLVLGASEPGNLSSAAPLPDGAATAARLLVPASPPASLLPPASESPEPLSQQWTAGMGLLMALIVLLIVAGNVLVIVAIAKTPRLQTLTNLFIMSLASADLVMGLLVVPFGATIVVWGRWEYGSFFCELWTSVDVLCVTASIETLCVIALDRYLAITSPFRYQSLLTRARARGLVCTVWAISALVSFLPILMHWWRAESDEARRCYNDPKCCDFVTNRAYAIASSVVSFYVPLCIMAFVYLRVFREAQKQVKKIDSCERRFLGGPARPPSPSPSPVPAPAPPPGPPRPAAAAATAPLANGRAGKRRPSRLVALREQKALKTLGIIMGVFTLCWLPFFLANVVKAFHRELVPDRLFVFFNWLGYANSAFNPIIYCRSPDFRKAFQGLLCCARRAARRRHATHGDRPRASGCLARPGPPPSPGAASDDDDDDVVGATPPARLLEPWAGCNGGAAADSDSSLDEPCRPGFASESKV

[10] = target: T6, Cholecystokinin receptor type A (Homo sapiens, UniProt P32238)
T6 sequence (P32238 whole entry): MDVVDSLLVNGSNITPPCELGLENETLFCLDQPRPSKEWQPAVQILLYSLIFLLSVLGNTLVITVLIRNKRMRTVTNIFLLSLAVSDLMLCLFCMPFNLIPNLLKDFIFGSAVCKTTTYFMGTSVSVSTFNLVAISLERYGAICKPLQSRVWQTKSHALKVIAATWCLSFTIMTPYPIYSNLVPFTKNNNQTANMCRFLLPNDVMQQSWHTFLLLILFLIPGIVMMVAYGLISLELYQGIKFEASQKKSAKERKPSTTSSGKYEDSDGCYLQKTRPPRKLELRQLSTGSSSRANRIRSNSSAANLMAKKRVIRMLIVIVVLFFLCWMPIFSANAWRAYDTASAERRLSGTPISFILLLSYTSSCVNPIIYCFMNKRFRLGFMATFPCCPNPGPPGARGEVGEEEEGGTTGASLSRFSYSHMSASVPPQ
Note: assay procedure not described here.

Sequence of Sodium-dependent noradrenaline transporter (P23975 whole entry): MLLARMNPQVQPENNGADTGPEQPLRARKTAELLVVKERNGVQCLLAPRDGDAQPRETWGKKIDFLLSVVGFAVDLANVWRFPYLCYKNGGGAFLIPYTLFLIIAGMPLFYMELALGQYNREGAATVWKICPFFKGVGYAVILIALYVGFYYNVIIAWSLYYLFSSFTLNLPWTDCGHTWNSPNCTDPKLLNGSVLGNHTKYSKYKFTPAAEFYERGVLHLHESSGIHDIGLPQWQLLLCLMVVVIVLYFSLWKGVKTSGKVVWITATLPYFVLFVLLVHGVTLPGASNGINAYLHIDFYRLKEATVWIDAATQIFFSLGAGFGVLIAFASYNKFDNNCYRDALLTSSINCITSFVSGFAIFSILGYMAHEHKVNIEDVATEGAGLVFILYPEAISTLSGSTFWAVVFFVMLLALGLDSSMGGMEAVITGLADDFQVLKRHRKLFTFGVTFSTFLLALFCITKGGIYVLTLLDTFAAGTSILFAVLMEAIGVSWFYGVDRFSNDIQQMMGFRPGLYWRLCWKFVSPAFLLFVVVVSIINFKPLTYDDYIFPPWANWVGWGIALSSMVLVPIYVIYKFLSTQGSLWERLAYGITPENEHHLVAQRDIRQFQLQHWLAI

Row | Compound | AC50 [1] [µM] | AC50 (Thromboxane A2 receptor) [µM] | AC50 [2] [µM] | AC50 (Vasopressin V2 receptor) [µM] | AC50 [3] [µM] | AC50 [4] [µM] | AC50 [5] | AC50 [6] [µM] | AC50 (Adenosine receptor A1) [µM] | AC50 [7] [µM] | AC50 (D(3) dopamine receptor) [µM] | AC50 [8] [µM] | AC50 [9] [µM] | AC50 [10] [µM]
1 | O=C1C(CC[S+]([O-])c2ccccc2)C(=O)N(c2ccccc2)N1c1ccccc1 (centres undefined) [SULFINPYRAZONE] | > 10 | > 10 | > 10 | > 10 | > 10 | > 30 | > 30 µM | > 10 | > 10 | > 10 | > 30 | > 30 | > 10 | > 10
2 | CC(C)Cc1ccc(C(C)C(=O)O)cc1 (centres undefined) [IBUPROFEN] | > 30 | > 30 | > 30 | > 30 | > 10 | > 10 | > 10 µM | > 10 | > 30 | > 10 | > 30 | > 30 | > 10 | > 30
3 | CC(C)N(CCC(C(N)=O)(c1ccccc1)c1ccccn1)C(C)C (centres undefined) [DISOPYRAMIDE] | > 30 | > 30 | > 30 | > 30 | > 10 | > 10 | > 10 µM | > 10 | > 30 | > 10 | > 30 | > 30 | > 30 | > 30
4 | Nc1ccc(S(=O)(=O)Nc2nccs2)cc1 [SULFATHIAZOLE] | > 10 | > 30 | > 30 | > 30 | > 10 | > 10 | > 10 µM | > 10 | > 30 | > 10 | > 10 | > 30 | > 10 | > 30
5 | C=CC[C@@H]1/C=C(\C)C[C@H](C)C[C@H](OC)[C@H]2O[C@@](O)(C(=O)C(=O)N3CCCC[C@H]3C(=O)O[C@H](/C(C)=C/[C@@H]3CC[C@@H](O)[C@H](OC)C3)[C@H](C)[C@@H](O)CC1=O)[C@H](C)C[C@@H]2OC [TACROLIMUS ANHYDROUS] | > 30 | 15.3 | > 30 | > 30 | > 10 | > 10 | 23 µM and 20 µM | > 10 | > 30 | > 10 | > 30 | > 30 | > 30 | > 30
6 | CN(C)CCc1c[nH]c2ccc(Cn3cncn3)cc12 [RIZATRIPTAN] | > 10 | > 30 | > 30 | > 30 | > 30 | > 30 | > 10 µM | > 10 | > 30 | > 30 | > 30 | > 30 | > 10 | > 30
7 | COc1ccccc1Oc1c(NS(=O)(=O)c2ccc(C(C)(C)C)cc2)nc(-c2ncccn2)nc1OCCO [BOSENTAN] | > 30 | > 30 | > 30 | > 30 | > 10 | > 10 | > 10 µM | > 10 | > 30 | > 10 | > 30 | > 30 | > 30 | > 30
8 | Cc1onc(-c2ccccc2)c1-c1ccc(S(N)(=O)=O)cc1 [VALDECOXIB] | – | > 30 | > 30 | > 30 | > 10 | > 10 | > 10 µM | > 10 | 27.7 | > 10 | > 30 | > 30 | 8.32 | > 30
9 | C[C@H]1c2cccc(O)c2C(=O)C2=C(O)[C@]3(O)C(=O)C(C(N)=O)=C(O)[C@@H](N(C)C)[C@@H]3[C@@H](O)[C@@H]21 [DOXYCYCLINE] | > 10 | > 30 | > 30 | > 30 | > 10 | > 10 | > 10 µM | > 10 | 24.2 | > 10 | > 10 | > 30 | > 10 | > 30
10 | O=C1CCc2cc(OCCCCc3nnnn3C3CCCCC3)ccc2N1 [CILOSTAZOL] | > 30 | > 30 | > 30 | > 30 | > 30 | > 30 | > 30 µM | > 30 | > 30 | > 30 | > 30 | > 30 | > 30 | > 30

Reference: ChEMBL document CHEMBL5291721, “A preclinical secondary pharmacology resource illuminates target-adverse drug reaction associations of marketed drugs” (Nat Commun, 2023)
